Measurements as given in patent US10590140B2, “Tetrahydropyrimidodiazepine and dihydropyridodiazepine compounds for treating pain and pain related conditions” (ESTEVE PHARMACEUTICALS, S.A., priority 2016, dated 2020).
Like-named read-outs stand apart in the source and are kept apart here.

What was measured:
[1] = biological target: human norepinephrine transporter (NET) (Homo sapiens (Human), UniProt P23975); test: Binding assay to human norepinephrine transporter (NET) ([3H]-Nisoxetin); conditions: Table 2, dual compounds; [3H]-Nisoxetin binding
Chain of human norepinephrine transporter (NET) (P23975 whole entry): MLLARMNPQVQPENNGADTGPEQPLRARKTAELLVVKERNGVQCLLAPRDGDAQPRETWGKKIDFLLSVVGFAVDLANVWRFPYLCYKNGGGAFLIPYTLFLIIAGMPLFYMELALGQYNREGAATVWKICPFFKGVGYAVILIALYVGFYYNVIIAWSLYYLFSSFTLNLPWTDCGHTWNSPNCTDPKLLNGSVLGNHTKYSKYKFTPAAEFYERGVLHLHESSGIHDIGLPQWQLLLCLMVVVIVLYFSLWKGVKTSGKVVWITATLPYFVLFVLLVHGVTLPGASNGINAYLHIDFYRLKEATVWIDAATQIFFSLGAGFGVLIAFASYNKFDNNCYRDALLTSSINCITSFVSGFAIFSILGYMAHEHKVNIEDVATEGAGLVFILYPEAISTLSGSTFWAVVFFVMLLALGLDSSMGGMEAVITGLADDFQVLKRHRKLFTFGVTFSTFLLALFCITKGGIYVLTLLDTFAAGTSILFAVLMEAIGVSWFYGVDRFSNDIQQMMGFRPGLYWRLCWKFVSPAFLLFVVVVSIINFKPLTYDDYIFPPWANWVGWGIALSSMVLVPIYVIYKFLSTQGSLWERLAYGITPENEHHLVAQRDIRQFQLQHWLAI
Summary of the method: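 NET-enriched membranes (5 μg) incubated with 5 nM [3H]-nisoxetin in 50 mM Tris-HCl, 120 mM NaCl, 5 mM KCl, pH 7.4, 60 min at 4 °C. Bound ligand separated by filtration on PEI-soaked GF/C and counted by scintillation; nonspecific binding defined with 1 μM competitor.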

[2] = biological target: human α2δ-1 subunit of Cav2.2 calcium channel (Homo sapiens (Human), UniProt P54289); test: Binding assay to human α2δ-1 subunit of Cav2.2 calcium channel ([3H]-Gabapentin); conditions: read-out: Ki (nM) α2δ-1
Chain of human α2δ-1 subunit of Cav2.2 calcium channel (P54289 25-1103): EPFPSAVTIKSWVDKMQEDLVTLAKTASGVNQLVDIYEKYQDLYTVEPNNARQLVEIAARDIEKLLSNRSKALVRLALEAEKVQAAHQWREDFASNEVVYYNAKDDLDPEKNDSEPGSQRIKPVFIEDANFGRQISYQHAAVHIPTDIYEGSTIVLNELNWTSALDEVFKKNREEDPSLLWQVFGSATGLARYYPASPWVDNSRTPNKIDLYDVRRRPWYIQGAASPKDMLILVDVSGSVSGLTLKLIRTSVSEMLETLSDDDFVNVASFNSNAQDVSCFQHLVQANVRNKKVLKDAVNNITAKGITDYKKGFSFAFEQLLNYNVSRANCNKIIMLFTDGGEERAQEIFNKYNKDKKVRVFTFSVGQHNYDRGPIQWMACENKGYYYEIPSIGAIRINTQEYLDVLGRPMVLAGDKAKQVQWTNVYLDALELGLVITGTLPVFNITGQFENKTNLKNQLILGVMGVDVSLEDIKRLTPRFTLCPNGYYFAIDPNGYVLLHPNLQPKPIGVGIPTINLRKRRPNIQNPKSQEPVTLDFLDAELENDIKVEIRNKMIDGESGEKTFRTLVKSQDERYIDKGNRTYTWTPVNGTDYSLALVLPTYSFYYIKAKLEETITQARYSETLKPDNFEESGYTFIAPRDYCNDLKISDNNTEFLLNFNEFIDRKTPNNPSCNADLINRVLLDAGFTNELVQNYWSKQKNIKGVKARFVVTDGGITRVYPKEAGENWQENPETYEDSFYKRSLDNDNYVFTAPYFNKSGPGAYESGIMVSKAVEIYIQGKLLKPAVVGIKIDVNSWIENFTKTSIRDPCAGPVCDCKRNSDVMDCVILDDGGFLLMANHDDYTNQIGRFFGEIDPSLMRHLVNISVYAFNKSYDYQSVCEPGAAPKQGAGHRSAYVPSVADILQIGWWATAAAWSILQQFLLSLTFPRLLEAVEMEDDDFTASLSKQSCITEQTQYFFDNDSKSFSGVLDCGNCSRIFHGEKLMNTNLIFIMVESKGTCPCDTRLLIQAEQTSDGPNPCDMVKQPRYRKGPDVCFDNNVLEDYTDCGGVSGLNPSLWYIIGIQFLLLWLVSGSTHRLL
Summary of the method: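 [3H]-gabapentin binding, 60 min at 27° C; nonspecific binding defined with 10 μM pregabalin. Terminated by filtration on PEI-presoaked GF/C filters, ice-cold 50 mM Tris-HCl pH 7.4 washes, then scintillation counting.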

[3] = Table 2, dual compounds, [3H]-Gabapentin binding
[4] = binding to α2δ-1, [3H]-Gabapentin

| Ki [1] [nM] | Ki [2, 3] [nM] | Ki [2, 4] [nM] | SMILES |
| --- | --- | --- | --- |
| 100 to 500 | 100 to 500 | 100 to 500 | CNCC[C@H](Oc1cccc(N2CCN(C)c3cc(N)ncc3C2=O)c1)c1cccs1 [Example 304, (S)-8-amino-1-methyl-4-(3-(3-(methylamino)-1-(thiophen-2-yl)propoxy)phenyl)-1,2,3,4-tetrahydro-5H-pyrido[4,3-e][1,4]diazepin-5-one] |
| > 1000 | 500 to 3000 | 500 to 3000 | CCNc1ncc2c(n1)N(C)CCN(c1cccc(COC3(c4ccccc4)CCNCC3)c1)C2=O [Example 176, 2-(ethylamino)-9-methyl-6-(3-(((4-phenylpiperidin-4-yl)oxy)methyl)phenyl)-6,7,8,9-tetrahydro-5H-pyrimido[4,5-e][1,4]diazepin-5-one] |
| < 100 | 500 to 3000 | 500 to 3000 | CNCCC(Oc1ccc(CN2CCN(C)c3nc(SC)ncc3C2=O)cc1)c1ccccc1 (stereo not drawn) [Example 369, 9-methyl-6-(4-(3-(methylamino)-1-phenylpropoxy)benzyl)-2-(methylthio)-6,7,8,9-tetrahydro-5H-pyrimido[4,5-e][1,4]diazepin-5-one] |
| 100 to 500 | 100 to 500 | 100 to 500 | CNCC[C@@H](OCc1cccc(N2CCN(C)c3nc(N(C)Cc4cccnc4)ncc3C2=O)c1)c1ccccc1 [Example 342, (R)-9-methyl-2-(methyl(pyridin-3-ylmethyl)amino)-6-(3-((3-(methylamino)-1-phenylpropoxy)methyl)phenyl)-6,7,8,9-tetrahydro-5H-pyrimido[4,5-e][1,4]diazepin-5-one] |
